Patent US9247759B2, “Identification of human T2R receptors that respond to bitter compounds that elicit the bitter taste in compositions, and the use thereof in assays to identify compounds that inhibit (block) bitter taste in compositions and use thereof” (SENOMYX, INC., priority 2007, dated 2016)
pIC50: −log10 of the molar value. Where two headings read alike, the source gives them in different places.

Experiments:
hT2R3 = hT2R3 (Homo sapiens (Human), UniProt Q9NYW6); assay: hT2R panel inhibition, transient HEK293 G16g44, agonist Chloroquine pH6.5 50 μM; type: cell-based; settings: receptor activated to EC80 with the corresponding agonist; for inhibition at 25 µM: HEK293, compound at 25 μM, read-out: screening result against bitter receptor 3
Sequence of hT2R3 (Q9NYW6 whole entry): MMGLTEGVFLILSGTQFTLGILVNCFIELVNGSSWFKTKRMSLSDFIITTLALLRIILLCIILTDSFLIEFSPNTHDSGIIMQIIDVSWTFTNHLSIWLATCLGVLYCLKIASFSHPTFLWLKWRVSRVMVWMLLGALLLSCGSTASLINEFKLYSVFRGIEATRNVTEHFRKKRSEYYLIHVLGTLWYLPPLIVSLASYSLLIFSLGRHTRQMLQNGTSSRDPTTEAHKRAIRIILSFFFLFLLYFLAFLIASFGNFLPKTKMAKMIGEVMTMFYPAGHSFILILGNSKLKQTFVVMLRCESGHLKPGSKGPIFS
In short: (§1)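 Agonist concentrations were set at EC80 for each receptor. Activity was compared with and without the test compound, and the reduction recorded as inhibition, across 22 individually transfected human T2Rs.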

hT2R5 = hT2R5 (Homo sapiens (Human), UniProt Q9NYW4); assay: hT2R panel inhibition, transient HEK293 G16g44, agonist Picoline 10 mM; type: cell-based; settings: HEK293, compound at 25 μM; receptor activated to EC80 with the corresponding agonist; read-out: screening result against bitter receptor 5
Sequence of hT2R5 (Q9NYW4 whole entry): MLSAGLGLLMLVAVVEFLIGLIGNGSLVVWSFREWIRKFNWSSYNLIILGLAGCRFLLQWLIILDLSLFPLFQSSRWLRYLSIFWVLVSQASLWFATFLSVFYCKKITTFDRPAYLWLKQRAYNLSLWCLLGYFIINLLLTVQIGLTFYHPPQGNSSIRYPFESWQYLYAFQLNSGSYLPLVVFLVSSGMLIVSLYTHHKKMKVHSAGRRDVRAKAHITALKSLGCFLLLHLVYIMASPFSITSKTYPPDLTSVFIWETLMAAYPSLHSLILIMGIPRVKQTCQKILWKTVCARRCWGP
In short: as §1

hT2R7 = hT2R7 (Homo sapiens (Human), UniProt Q9NYW3); assay: hT2R panel inhibition, transient HEK293 G16g44, agonist Chloroquine pH6.5 10 mM; type: cell-based; settings: HEK293, compound at 25 μM; receptor activated to EC80 with the corresponding agonist; read-out: screening result against bitter receptor 7
Sequence of hT2R7 (Q9NYW3 whole entry): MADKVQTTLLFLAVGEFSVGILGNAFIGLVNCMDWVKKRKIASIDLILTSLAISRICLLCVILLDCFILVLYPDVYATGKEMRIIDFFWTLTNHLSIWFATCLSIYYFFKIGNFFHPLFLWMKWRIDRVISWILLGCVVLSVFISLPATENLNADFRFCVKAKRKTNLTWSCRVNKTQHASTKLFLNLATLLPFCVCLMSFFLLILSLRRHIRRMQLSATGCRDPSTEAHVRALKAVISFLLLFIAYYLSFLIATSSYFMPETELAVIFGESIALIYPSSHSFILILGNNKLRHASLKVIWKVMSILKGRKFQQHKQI
In short: as §1

hT2R8 = hT2R8 (Homo sapiens (Human), UniProt Q9NYW2); assay: hT2R panel inhibition, transient HEK293 G16g44, agonist Andrographolide 0.5 mM; type: cell-based; settings: HEK293, compound at 25 μM; receptor activated to EC80 with the corresponding agonist; read-out: screening result against bitter receptor 8
Sequence of hT2R8 (Q9NYW2 whole entry): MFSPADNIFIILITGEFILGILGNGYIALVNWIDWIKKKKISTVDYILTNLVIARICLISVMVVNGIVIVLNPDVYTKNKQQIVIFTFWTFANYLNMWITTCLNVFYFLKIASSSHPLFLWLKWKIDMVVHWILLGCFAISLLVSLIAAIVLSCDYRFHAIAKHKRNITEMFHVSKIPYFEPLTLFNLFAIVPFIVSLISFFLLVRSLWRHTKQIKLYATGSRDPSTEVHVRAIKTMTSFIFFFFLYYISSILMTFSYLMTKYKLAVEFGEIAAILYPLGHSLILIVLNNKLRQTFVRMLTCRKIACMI
Protocol: Specifically, in order to evaluate the inhibitory selectivity of the Compound C compound, this compound was tested against 22 human T2Rs which were deorphaned by Senomyx. These receptors and the bitter ligands that activate these human T2Rs are reported in earlier patent applications which are incorporated by reference herein. These 22 human T2Rs are hT2R1, 3, 4, 5, 7, 8, 9, 10, 13, 14, 16, 44, 51, 54, 55, 61, 63, 64, 65, 67, 71 and 75. The amino acid and nucleic acid sequences of all of these T2Rs may be found in these earlier patent applications. These human T2Rs were each individually transiently transfected into HEK293 cells that stably express the promiscuous G protein G16g44 and functional assays were effected using these receptors as disclosed in these same patent applications. […] The ligands were used at EC80 concentration levels. The list of bitter ligands utilized and the tested ligand concentrations are contained in Table 5 of this example.

hT2R55 = assay: hT2R panel inhibition, transient HEK293 G16g44, agonist Cinchonine 150 μM; type: cell-based, human; settings: compound at 25 μM; receptor activated to EC80 with the corresponding agonist
In short: as §1

hT2R61 = hT2R61 (Homo sapiens (Human), UniProt P59537); assay: hT2R panel inhibition, transient HEK293 G16g44, agonist Aristolochic Acid 25 nM; type: cell-based; settings: HEK293, compound at 25 μM; receptor activated to EC80 with the corresponding agonist; read-out: screening result against bitter receptor 61
Sequence of hT2R61 (P59537 whole entry): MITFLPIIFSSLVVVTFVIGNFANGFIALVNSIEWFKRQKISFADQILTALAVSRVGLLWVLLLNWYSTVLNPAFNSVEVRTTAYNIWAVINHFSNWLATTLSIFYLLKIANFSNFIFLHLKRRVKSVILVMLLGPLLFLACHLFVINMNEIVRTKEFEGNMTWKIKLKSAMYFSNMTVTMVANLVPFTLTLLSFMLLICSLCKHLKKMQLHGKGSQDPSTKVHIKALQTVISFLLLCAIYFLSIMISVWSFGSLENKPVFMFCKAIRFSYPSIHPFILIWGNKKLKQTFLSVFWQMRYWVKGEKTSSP
In short: as §1

hT2R63 = assay: hT2R panel inhibition, transient HEK293 G16g44, agonist Caffeine 1 mM or Andrographolide 100 μM; type: cell-based, human; settings: compound at 25 μM; receptor activated to EC80 with the corresponding agonist
In short: as §1

hT2R64 = hT2R64 (Homo sapiens (Human), UniProt P59538); assay: hT2R panel inhibition, transient HEK293 G16g44, agonist Aristolochic Acid 1 μM; type: cell-based; settings: HEK293, compound at 25 μM; receptor activated to EC80 with the corresponding agonist; read-out: screening result against bitter receptor 64
Sequence of hT2R64 (P59538 whole entry): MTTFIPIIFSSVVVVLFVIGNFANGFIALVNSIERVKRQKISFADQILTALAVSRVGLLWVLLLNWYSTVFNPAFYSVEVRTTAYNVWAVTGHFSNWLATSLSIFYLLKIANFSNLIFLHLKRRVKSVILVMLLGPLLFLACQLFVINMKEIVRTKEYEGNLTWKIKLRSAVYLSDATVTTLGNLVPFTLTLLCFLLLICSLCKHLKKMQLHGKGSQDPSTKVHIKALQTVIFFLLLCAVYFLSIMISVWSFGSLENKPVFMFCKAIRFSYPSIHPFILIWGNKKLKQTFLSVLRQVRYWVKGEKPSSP
In short: as §1

hT2R67 = assay: hT2R panel inhibition, transient HEK293 G16g44, agonist Andrographolide 5 μM; type: cell-based, human; settings: compound at 25 μM; receptor activated to EC80 with the corresponding agonist
In short: as §1

hT2R71 = hT2R71 (Homo sapiens (Human), UniProt P59536); assay: hT2R panel inhibition, transient HEK293 G16g44, agonist Picric Acid 10 μM; type: cell-based; settings: receptor activated to EC80 with the corresponding agonist; for inhibition at 25 µM: HEK293, compound at 25 μM, read-out: screening result against bitter receptor 71
Sequence of hT2R71 (P59536 whole entry): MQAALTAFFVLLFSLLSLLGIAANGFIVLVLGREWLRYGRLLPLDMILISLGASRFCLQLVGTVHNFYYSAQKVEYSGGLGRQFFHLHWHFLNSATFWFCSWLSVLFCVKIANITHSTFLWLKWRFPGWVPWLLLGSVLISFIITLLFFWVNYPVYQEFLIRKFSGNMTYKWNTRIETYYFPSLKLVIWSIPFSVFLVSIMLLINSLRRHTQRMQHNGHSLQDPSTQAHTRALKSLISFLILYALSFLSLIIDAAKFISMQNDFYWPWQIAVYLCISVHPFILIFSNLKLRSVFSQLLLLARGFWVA
In short: as §1

hT2R10 = hT2R10 (Homo sapiens (Human), UniProt Q9NYW0); assay: hT2R panel inhibition, transient HEK293 G16g44, agonist Strychnine 50 μM; type: cell-based; settings: receptor activated to EC80 with the corresponding agonist; for inhibition at 25 µM: HEK293, read-out: screening result against bitter receptor 10, compound at 25 μM
Sequence of hT2R10 (Q9NYW0 whole entry): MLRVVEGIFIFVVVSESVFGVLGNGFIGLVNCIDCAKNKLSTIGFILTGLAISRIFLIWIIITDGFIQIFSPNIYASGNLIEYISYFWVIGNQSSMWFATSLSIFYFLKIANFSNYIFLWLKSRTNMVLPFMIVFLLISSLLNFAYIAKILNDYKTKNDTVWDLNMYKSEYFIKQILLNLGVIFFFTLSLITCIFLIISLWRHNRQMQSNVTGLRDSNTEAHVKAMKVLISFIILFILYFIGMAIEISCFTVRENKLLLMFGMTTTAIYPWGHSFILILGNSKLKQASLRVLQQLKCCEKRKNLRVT

hT2R14 [1] = biological target: T1, hT2R14 (Homo sapiens (Human), UniProt Q9NYV8); assay: hT2R panel inhibition, transient HEK293 G16g44, agonist Aristolochic Acid 2 μM; type: cell-based; settings: HEK293, compound at 25 μM; receptor activated to EC80 with the corresponding agonist; read-out: screening result against bitter receptor 14
T1 sequence (Q9NYV8 whole entry): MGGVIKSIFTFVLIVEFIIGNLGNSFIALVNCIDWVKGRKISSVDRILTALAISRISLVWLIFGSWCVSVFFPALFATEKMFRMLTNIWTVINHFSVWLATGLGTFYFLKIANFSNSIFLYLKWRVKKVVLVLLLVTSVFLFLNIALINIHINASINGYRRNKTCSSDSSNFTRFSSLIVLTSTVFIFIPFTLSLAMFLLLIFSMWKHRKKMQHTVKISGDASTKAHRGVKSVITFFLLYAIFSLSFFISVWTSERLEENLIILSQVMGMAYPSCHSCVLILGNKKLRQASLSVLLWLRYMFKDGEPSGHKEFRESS
In short: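 Each hT2R was transiently transfected into HEK293 cells stably expressing G16g44 and assayed functionally for inhibition of agonist response. Agonists were applied at EC80: andrographolide at 0.5 mM for hT2R8 and aristolochic acid at 2 μM for hT2R14.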

hT2R16 = hT2R16 (Homo sapiens (Human), UniProt Q9NYV7); assay: hT2R panel inhibition, transient HEK293 G16g44, agonist Salicin 1 mM; type: cell-based; settings: HEK293, compound at 25 μM; receptor activated to EC80 with the corresponding agonist; read-out: screening result against bitter receptor 16
Sequence of hT2R16 (Q9NYV7 whole entry): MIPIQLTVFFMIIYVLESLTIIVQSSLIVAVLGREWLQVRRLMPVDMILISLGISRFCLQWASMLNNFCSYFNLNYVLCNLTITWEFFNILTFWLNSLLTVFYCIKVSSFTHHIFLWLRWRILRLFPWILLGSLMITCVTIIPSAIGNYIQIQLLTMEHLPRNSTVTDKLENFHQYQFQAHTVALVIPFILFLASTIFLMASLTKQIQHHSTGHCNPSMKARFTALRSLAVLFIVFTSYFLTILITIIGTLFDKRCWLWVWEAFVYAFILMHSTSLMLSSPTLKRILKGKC
In short: as §1

hT2R44 = assay: hT2R panel inhibition, transient HEK293 G16g44, agonist Denatonium 0.5 μM; type: cell-based, human; settings: compound at 25 μM; receptor activated to EC80 with the corresponding agonist
In short: as §1

hT2R51 = hT2R51 (Homo sapiens (Human), UniProt P59533); assay: hT2R panel inhibition, transient HEK293 G16g44, agonist Prop 2.5 μM; type: cell-based; settings: receptor activated to EC80 with the corresponding agonist; for inhibition at 25 µM: HEK293, compound at 25 μM, read-out: screening result against bitter receptor 51
Sequence of hT2R51 (P59533 whole entry): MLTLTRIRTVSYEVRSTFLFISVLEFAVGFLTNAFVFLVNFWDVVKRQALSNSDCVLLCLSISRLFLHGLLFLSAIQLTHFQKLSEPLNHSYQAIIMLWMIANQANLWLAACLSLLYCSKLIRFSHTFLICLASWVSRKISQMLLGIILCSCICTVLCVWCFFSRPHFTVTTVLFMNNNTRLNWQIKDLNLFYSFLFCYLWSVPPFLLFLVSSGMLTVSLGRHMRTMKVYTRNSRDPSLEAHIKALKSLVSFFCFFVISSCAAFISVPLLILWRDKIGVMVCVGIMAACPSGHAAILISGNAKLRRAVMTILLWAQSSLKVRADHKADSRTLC
In short: as §1

hT2R54 = assay: hT2R panel inhibition, transient HEK293 G16g44, agonist Ranitidine 5 mM; type: cell-based, human; settings: compound at 25 μM; receptor activated to EC80 with the corresponding agonist
In short: as §1

hT2R65 = assay: hT2R panel inhibition, transient HEK293 G16g44, agonist Oleuropein 1 mM; type: cell-based, human; settings: compound at 25 μM; receptor activated to EC80 with the corresponding agonist
In short: as §1

hT2R14 [2] = biological target: T1, hT2R14; assay: hT2R14 antagonist high-throughput FLIPR assay, stable cell line with G16g44, agonist aristolochic acid; type: cell-based
In short: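 HEK293 cells stably expressing hT2R14 with chimeric G16g44 were stimulated with aristolochic acid (3 μM), giving 70-80% of maximal receptor activity. Test compounds were added together with the agonist, and antagonism was read as fluorescent calcium signal on FLIPR.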

hT2R9 = hT2R9 (Homo sapiens (Human), UniProt Q9NYW1); assay: hT2R panel inhibition, transient HEK293 G16g44, agonist Ofloxacin 1 mM; type: cell-based; settings: HEK293, compound at 25 μM; receptor activated to EC80 with the corresponding agonist; read-out: screening result against bitter receptor 9
Sequence of hT2R9 (Q9NYW1 whole entry): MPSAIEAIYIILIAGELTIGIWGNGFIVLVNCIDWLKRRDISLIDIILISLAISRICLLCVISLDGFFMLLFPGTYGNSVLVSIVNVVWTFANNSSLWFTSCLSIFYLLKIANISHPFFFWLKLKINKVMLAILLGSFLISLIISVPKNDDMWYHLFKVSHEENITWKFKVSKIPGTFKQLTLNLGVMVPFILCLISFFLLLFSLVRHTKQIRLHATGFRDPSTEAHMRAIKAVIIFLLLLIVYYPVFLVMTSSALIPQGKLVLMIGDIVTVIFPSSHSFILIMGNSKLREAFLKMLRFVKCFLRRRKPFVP
In short: as §1

hT2R13 = hT2R13 (Homo sapiens (Human), UniProt Q9NYV9); assay: hT2R panel inhibition, transient HEK293 G16g44, agonist Oxyphenonium 1 mM; type: cell-based; settings: HEK293, compound at 25 μM; receptor activated to EC80 with the corresponding agonist; read-out: screening result against bitter receptor 13
Sequence of hT2R13 (Q9NYV9 whole entry): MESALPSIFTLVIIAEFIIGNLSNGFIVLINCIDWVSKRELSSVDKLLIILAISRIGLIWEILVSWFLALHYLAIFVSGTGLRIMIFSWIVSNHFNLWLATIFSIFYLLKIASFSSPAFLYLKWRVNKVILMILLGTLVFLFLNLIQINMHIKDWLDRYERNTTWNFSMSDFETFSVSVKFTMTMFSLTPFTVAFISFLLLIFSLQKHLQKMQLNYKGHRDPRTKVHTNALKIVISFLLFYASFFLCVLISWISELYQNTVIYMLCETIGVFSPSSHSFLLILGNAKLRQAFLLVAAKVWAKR
In short: as §1

hT2R75 = hT2R75 (Homo sapiens (Human), UniProt P59540); assay: hT2R panel inhibition, transient HEK293 G16g44, agonist Strychnine 1 μM; type: cell-based; settings: HEK293, read-out: screening result against bitter receptor 75, compound at 25 μM; receptor activated to EC80 with the corresponding agonist
Sequence of hT2R75 (P59540 whole entry): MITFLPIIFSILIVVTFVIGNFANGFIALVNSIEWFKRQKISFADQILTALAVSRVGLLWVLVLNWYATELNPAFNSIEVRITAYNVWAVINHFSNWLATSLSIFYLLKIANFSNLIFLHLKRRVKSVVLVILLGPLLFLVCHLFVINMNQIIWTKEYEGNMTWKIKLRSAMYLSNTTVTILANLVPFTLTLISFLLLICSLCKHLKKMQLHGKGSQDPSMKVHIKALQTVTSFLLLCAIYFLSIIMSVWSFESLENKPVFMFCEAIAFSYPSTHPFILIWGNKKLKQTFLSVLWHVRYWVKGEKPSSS

| Structure (SMILES) | inhibition at 25 µM (hT2R3) [%] | inhibition at 25 µM (hT2R5) [%] | inhibition at 25 µM (hT2R7) [%] | inhibition at 25 µM (hT2R8) [%] | screening result against bitter receptor 55 (hT2R55) | inhibition at 25 µM (hT2R61) [%] | screening result against bitter receptor 63 (hT2R63) | inhibition at 25 µM (hT2R64) [%] | screening result against bitter receptor 67 (hT2R67) | inhibition at 25 µM (hT2R71) [%] | inhibition at 25 µM (hT2R10) [%] | inhibition at 25 µM (hT2R14 [1]) [%] | inhibition at 25 µM (hT2R16) [%] | screening result against bitter receptor 44 (hT2R44) | inhibition at 25 µM (hT2R51) [%] | screening result against bitter receptor 54 (hT2R54) | screening result against bitter receptor 65 (hT2R65) | inhibition at 25 µM (hT2R9) [%] | inhibition at 25 µM (hT2R75) [%] | also measured |
| --- | --- | --- | --- | --- | --- | --- | --- | --- | --- | --- | --- | --- | --- | --- | --- | --- | --- | --- | --- | --- |
| COc1ccc(CN(Cc2ccsc2)S(=O)(=O)c2ccc(C(=O)O)cc2)cc1 [Example 5-62, 4-(N-(4-methoxybenzyl)-N-(thiophen-3-ylmethyl)sulfamoyl)benzoic acid] | 20 to 40 | 20 to 40 | 20 to 40 | 20 to 40 | +++ (60% to 80% inhibition = +++) | 40 to 60 | ++++ (80% or greater inhibition = ++++) | 40 to 60 | + (20% to 40% inhibition = +) | 20 to 40 | – | – | – | – | – | – | – | – | – | – |
| O=C(O)c1ccc(S(=O)(=O)N(Cc2ccccc2)Cc2ccc(Cl)cc2)cc1 [Example 5-77, 4-(N-benzyl-N-(4-chlorobenzyl)sulfamoyl)benzoic acid] | 40 to 60 | 20 to 40 | 20 to 40 | 20 to 40 | ++ (40% to 60% inhibition = ++) | 60 to 80 | +++ (60% to 80% inhibition = +++) | 40 to 60 | + (20% to 40% inhibition = +) | 40 to 60 | 20 to 40 | > 80 | 20 to 40 | + (20% to 40% inhibition = +) | 40 to 60 | ++ (40% to 60% inhibition = ++) | ++ (40% to 60% inhibition = ++) | – | – | – |
| COc1ccc(CN(Cc2cccc(Cl)c2)S(=O)(=O)c2ccc(C(=O)O)cc2)cc1 [Example 5-14, 4-(N-(3-chlorobenzyl)-N-(4-methoxybenzyl)sulfamoyl)benzoic acid] | > 80 | 60 to 80 | 60 to 80 | 20 to 40 | ++++ (80% or greater inhibition = ++++) | > 80 | ++++ (80% or greater inhibition = ++++) | > 80 | ++ (40% to 60% inhibition = ++) | > 80 | > 80 | > 80 | 60 to 80 | +++ (60% to 80% inhibition = +++) | 60 to 80 | ++++ (80% or greater inhibition = ++++) | ++++ (80% or greater inhibition = ++++) | 40 to 60 | 40 to 60 | pIC50 (hT2R14 [2]; read-out: IC50 on hT2R14 bitter receptor): 5.73; inhibition at 25 µM (hT2R13): 20 to 40% |
| COc1ccc(CN(Cc2ccc(F)cc2)S(=O)(=O)c2ccc(C(=O)O)cc2)cc1 [Example 5-69, 4-(N-(4-fluorobenzyl)-N-(4-methoxybenzyl)sulfamoyl)benzoic acid] | – | 20 to 40 | – | 20 to 40 | +++ (60% to 80% inhibition = +++) | 60 to 80 | ++++ (80% or greater inhibition = ++++) | 40 to 60 | – | – | – | > 80 | – | + (20% to 40% inhibition = +) | – | – | – | – | 20 to 40 | pIC50 (hT2R14 [2]; Table C, read-out: hT2R14 IC50): 5.08; screening result against bitter receptor 3 (hT2R3; compound at 25 μM): + (20% to 40% inhibition = +); screening result against bitter receptor 10 (hT2R10; compound at 25 μM): + (20% to 40% inhibition = +); screening result against bitter receptor 51 (hT2R51; compound at 25 μM): ++ (40% to 60% inhibition = ++); screening result against bitter receptor 71 (hT2R71; compound at 25 μM): + (20% to 40% inhibition = +) |
| COc1ccc(CN(Cc2ccc(C)cc2)S(=O)(=O)c2ccc(C(=O)O)cc2)cc1 [Example 5-66, 4-(N-(4-methoxybenzyl)-N-(4-methylbenzyl)sulfamoyl)benzoic acid] | 20 to 40 | – | – | 20 to 40 | – | – | – | – | – | – | – | – | – | + (20% to 40% inhibition = +) | – | – | – | 20 to 40 | – | – |
| Cc1ccc(CN(Cc2ccccc2)S(=O)(=O)c2ccc(C(=O)O)cc2)cc1 [Example 5-70, 4-(N-benzyl-N-(4-methylbenzyl)sulfamoyl)benzoic acid] | 40 to 60 | 40 to 60 | 20 to 40 | 20 to 40 | +++ (60% to 80% inhibition = +++) | 40 to 60 | ++++ (80% or greater inhibition = ++++) | 20 to 40 | + (20% to 40% inhibition = +) | 40 to 60 | 40 to 60 | 60 to 80 | 40 to 60 | + (20% to 40% inhibition = +) | 40 to 60 | ++ (40% to 60% inhibition = ++) | ++ (40% to 60% inhibition = ++) | – | 20 to 40 | – |
| COc1ccc(CN(Cc2ccccc2C)S(=O)(=O)c2ccc(C(=O)O)cc2)cc1 [Example 5-64, 4-(N-(4-methoxybenzyl)-N-(2-methylbenzyl)sulfamoyl)benzoic acid] | 20 to 40 | 20 to 40 | – | 20 to 40 | – | – | + (20% to 40% inhibition = +) | 20 to 40 | – | – | – | – | – | + (20% to 40% inhibition = +) | – | + (20% to 40% inhibition = +) | – | 20 to 40 | – | – |
